Measurements published in US4736058A, “Prostacyclins and process for production thereof” (Teijin Limited, priority 1983, dated 1988).
≈ marks a conversion by molar mass, not a printed value. Like-named read-outs stand apart in the source and are kept apart here.

Legend:
[1] = background; natural prostacyclin under neutral or acidic conditions; cited from earlier work
[2] = background; cited from earlier work
[3] = test system: platelet aggregation (rabbit platelet-rich plasma, ADP); assay: in vitro inhibition of ADP-induced platelet aggregation; format: cell-based, rabbit (Japanese domestic white male); details: Oryctolagus cuniculus
Experimental: (i) Measurement of in vitro inhibitory activity of platelet aggregation
The in vitro platelet aggregation inhibiting activities of 9(0)-methano-Δ^6(9) -prostaglandin I, obtained in Example 3 was examined by using rabbits. Blood was withdrawn from the ear vein of Japanese domestic white male rabbits weighing 2.5 to 3.5 kg. A mixture of a 3.8% trisodium citrate solution and the blood in a ratio of 1:9 was centrifuged at a speed of 1000 rpm for 10 minutes. The upper layer was separated as platelet-rich plasma (PRP). The lower layer was further centrifuged at a speed of […] for 10 minutes. The upper layer was separated as platelet-poor plasma (PPP). The number of platelets was adjusted to 6×10^5 /μl to 7×10^5 /μl by diluting the PRP with PPP. 25 microliters of the test compound prepared as shown below was added in an amount of 250 microliters of PRP after the adjustment, and the mixture was pre-incubated at 37° C. for 2 minutes, and then 10 μM (final) of ADP was added. By using an aggregometer, changes in transmission were recorded.
The test compound was dissolved in ethanol to a concentration of 10 mg/ml. When its activity was measured, it was used after being diluted with phosphate buffer (pH 7.4).
The rate of inhibition of platelet aggregation was determined from the following equation. [formula] To : the transmittance of the system containing the phosphate buffer, T: the transmittance of the system to which the test compound was added.
The minimum concentration of the compound which inhibited more than 50% of platelet aggregation was shown as an IC50 value.

[4] = hypotensive activity, intravenous injection in anesthetized rats: blood pressure; format: in vivo, rat (male wister); details: rat, i.v., dosage causing a 20% lowering of mean blood pressure
Experimental: (§1) (ii) Measurement of the hypotensive activity
(§2) The actions of the 9(0)-methano-Δ^6(9) -prostaglandin 1, obtained in Example 3 on the blood pressure and heart rate of rats were examined by intravenous injection under anesthesia.
(§3) Male wister rats weighing about 250 g were used. Urethane (500 mg/kg) and α-chloralose (100 mg/kg) were intraperitoneally administered to the rats. The rats were anesthetized and fixed place.
(§4) The test compound was dissolved in a small amount of ethanol and diluted with 0.05M Tris buffer saline (pH 9) to adjust the final ethanol concentration to not more than 5%. The solution was intravenously injected into the rats through a cathether inserted into the femoral vein.
(§5) The blood pressure of the rats was measured by a pressure transducer through a cathether inserted into the carotid artery of the rats. The heart rate was determined from the blood pressure pulse.
(§6) The action of the test compound on the blood pressure was expressed as the dosage (ED20, μg/kg) of the test compound which caused a 20% lowering of the mean blood pressure before administration of the compound. The action of the test compound on the heart rate was expressed as the dosage (ED10, μg/kg) of the test compound which caused a 10% increase of the heart rate from the heart rate before administration of the test compound.

[5] = heart rate, intravenous injection in anesthetized rats; format: in vivo, rat (male wister); details: rat, i.v., dosage causing a 10% increase of heart rate
Experimental: as §1, §2, §3, §4, §5, §6

[6] = test system: epithelial cells of rabbits; assay: cell protecting action against cell lethal action at pH 3; format: cell-based, rabbit; details: 10^-6 M
[7] = rabbit PRP, 10 μM ADP, minimum concentration which inhibited more than 50% of platelet aggregation, read-out: platelet aggregation inhibiting activity IC50

| SMILES | chemical stability, in words [1] | action-selectivity, in words [2] | biological activity relative to natural prostacyclin, in words [2] | IC50 ([3]; Platelet, rabbits, induced by ADP, read-out: inhibition of platelet aggregation IC50) [ng/mL] | IC50 [3, 7] [ng/mL] | ED20 [4] [µg/kg] | increase of heart rate ED10 [5] [µg/kg] | cell protecting action [6] |
| --- | --- | --- | --- | --- | --- | --- | --- | --- |
| CCCCC[C@H](O)/C=C/[C@@H]1[C@H]2C/C(=C\CCCC(=O)O)C[C@H]2C[C@H]1O [6,9-(0)-methanoprostacyclin] | able to satisfy the chemical stableness to perfection | not enough specific in action-selectivity | inferior to natural prostacyclin in biological activity | – | – | – | – | – |
| CCCCC[C@H](O)/C=C/[C@@H]1[C@H]2CC(CCCCC(=O)O)=C[C@H]2C[C@H]1O [9(0)-methano-Δ^6(9) -prostaglandin I1] | – | – | – | 5.4 (≈ 0.0154 µM) | 5.4 (≈ 0.0154 µM) | 1.7 | > 30 | has a cell protecting action |
| CCCCC[C@H](O)/C=C/[C@@H]1[C@H]2C/C(=C/CCCC(=O)O)O[C@H]2C[C@H]1O [PGI2] | apt to be appreciably hydrolyzed | – | – | – | 1.6 (≈ 0.00454 µM) | 0.068 | > 10 | – |
